Test results reported in patent US6809200B2, “Process for the preparation of pyrazolo[4,3-d]pyrimidin-7-one compounds and intermediates thereof” (Pfizer Inc., priority 2000, dated 2004).

Legend:
[1] = Dynamic Vapour Sorption (DVS) measurements; type: physicochemical
Excerpt: Dynamic Vapour Sorption (DVS) measurements were made for the compound of Example 12 by exposing a solid sample to controlled relative humidity (% RH) and weight change recorded with time on an automated water sorption analyser.

[2] = Preliminary analysis of hygroscopicity / hydration state; type: physicochemical; conditions: solid compound

Row | Compound | weight lost on drying (sorption/desorption isotherm) ([1]; DVS, loss due to residual solvent or surface moisture) | hygroscopicity ([1]; solid sample exposed to controlled relative humidity) | hygroscopicity (preliminary analysis) [2]
1 | CCCCOc1ncc(C(C)=O)cc1-c1nc2c(CC)n(C3CN(CC)C3)nc2c(=O)[nH]1.O=S(=O)(O)c1ccccc1 [Example 12, 5-(5-Acetyl-2-butoxy-3-pyridinyl)-3-ethyl-2-(1-ethyl-3-azetidinyl)-2,6dihydro-7H-pyrazolo[4,3-d]pyrimidin-7-one benzenesulfonate] | 0.9% | non-hygroscopic | –
2 | CCCCOc1ncc(C(C)=O)cc1-c1nc2c(CC)n(C3CN(CC)C3)nc2c(=O)[nH]1 [compound 1A, 5-(5-Acetyl-2-butoxy-3-pyridinyl)-3-ethyl-2-(1-ethyl-3-azetidinyl)-2,6-dihydro-7H-pyrazolo[4,3-d]pyrimidin-7-one] | – | – | anhydrous and non-hygroscopic
